In the supplement of paper PMC5579334:

What was measured:
HSC2 [1] = assay: relative IC50 (inflection point of fitted dose-response curve, CellTox-Green cytotoxicity, 72 h; top asymptote may be below 50%); higher = less potent
In short: (§1)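 MPNST cell lines and primary human Schwann cells were incubated 72 h at 37 °C in 384-well plates holding five 10-fold compound dilutions. CellTox-Green was added before seeding at a final 1:1000 dilution and reported fluorescence from DNA released by disrupted cells. Signals were scaled to vehicle and positive-control wells, and cultures failing plate quality control were dropped. Drug sensitivity score and relative IC50 come from four-parameter logistic fits, with IC50 censored at the top concentration.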

ST8814 [2] = assay: as above
In short: as §1

STS26T [3] = assay: as above
In short: as §1

HSC1 [4] = assay: as above
In short: as §1

HS-PSS [5] = assay: as above
In short: as §1

HS-Sch-2 = assay: relative IC50 (inflection point of fitted dose-response curve, CellTiter-Glo viability, 72 h; top asymptote may be below 50% inhibition); higher = less potent
In short: (§2)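 MPNST cell lines and primary human Schwann cells (750–1000 cells per well) went into 384-well plates preprinted with each compound at five concentrations in 10-fold steps. Plates were incubated 72 h at 37 °C, 5% CO2. Viability was read as CellTiter-Glo ATP luminescence, scaled between vehicle and positive-control wells, with duplicates averaged where present. Percent inhibition is at the top concentration; drug sensitivity score and relative IC50 (censored at top concentration) come from four-parameter logistic fits.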

HSC2 [6] = assay: as above
In short: as §2

ST8814 [7] = assay: as above
In short: as §2

YST-1 = assay: as above
In short: as §2

S1507-2 = assay: as above
In short: as §2

HSC1 [8] = assay: as above
In short: as §2

HS-PSS [9] = assay: as above
In short: as §2

STS26T [10] = assay: as above
In short: as §2

S462 = assay: as above
In short: as §2

CN(C)/N=N/c1[nH]cnc1C(N)=O [Dacarbazine]
relative IC50 (HSC2 [1]): > 10000 nM
relative IC50 (ST8814 [2]): > 10000 nM
relative IC50 (STS26T [3]): > 10000 nM
relative IC50 (HSC1 [4]): > 10000 nM
relative IC50 (HS-PSS [5]): > 10000 nM
relative IC50 (HS-Sch-2): > 10000 nM
relative IC50 (HSC2 [6]): > 10000 nM
relative IC50 (ST8814 [7]): > 10000 nM
relative IC50 (YST-1): > 10000 nM
relative IC50 (S1507-2): > 10000 nM
relative IC50 (HSC1 [8]): > 10000 nM
relative IC50 (HS-PSS [9]): > 10000 nM

Cc1ccc(-n2nc(C(C)(C)C)cc2NC(=O)Nc2ccc(OCCN3CCOCC3)c3ccccc23)cc1 [Doramapimod]
relative IC50 (HSC2 [1]): > 10000 nM
relative IC50 (ST8814 [2]): > 10000 nM
relative IC50 (STS26T [3]): > 10000 nM
relative IC50 (HSC1 [4]): > 10000 nM
relative IC50 (HS-Sch-2): 2330 nM
relative IC50 (HSC2 [6]): 1760 nM
relative IC50 (ST8814 [7]): > 10000 nM
relative IC50 (STS26T [10]): > 10000 nM
relative IC50 (YST-1): 667 nM
relative IC50 (S1507-2): > 10000 nM
relative IC50 (HSC1 [8]): 3010 nM
relative IC50 (HS-PSS [9]): 1640 nM

C[C@]12CC[C@@H]3c4ccc(O)cc4C[C@@H](CCCCCCCCC[S+]([O-])CCCC(F)(F)C(F)(F)F)[C@H]3[C@@H]1CC[C@@H]2O (stereo partly specified) [Fulvestrant]
relative IC50 (HSC2 [1]): > 1000 nM
relative IC50 (ST8814 [2]): > 1000 nM
relative IC50 (STS26T [3]): > 1000 nM
relative IC50 (HSC1 [4]): > 1000 nM
relative IC50 (HS-PSS [5]): > 1000 nM
relative IC50 (S462): > 1000 nM
relative IC50 (HS-Sch-2): > 1000 nM
relative IC50 (ST8814 [7]): > 1000 nM
relative IC50 (STS26T [10]): > 1000 nM
relative IC50 (YST-1): > 1000 nM
relative IC50 (S1507-2): > 1000 nM

Cc1cccc(-c2nn3c(c2-c2ccnc4ccc(C(N)=O)cc24)CCC3)n1 [Galunisertib]
relative IC50 (HSC2 [1]): > 1000 nM
relative IC50 (ST8814 [2]): > 1000 nM
relative IC50 (STS26T [3]): > 1000 nM
relative IC50 (HSC1 [4]): > 1000 nM
relative IC50 (HS-PSS [5]): > 1000 nM
relative IC50 (HS-Sch-2): > 1000 nM
relative IC50 (ST8814 [7]): > 1000 nM
relative IC50 (YST-1): > 1000 nM
relative IC50 (S1507-2): > 1000 nM
relative IC50 (HSC1 [8]): > 1000 nM
relative IC50 (HS-PSS [9]): > 1000 nM

Cc1ccc(NC(=O)c2ccc(CN3CCN(C)CC3)cc2)cc1Nc1nccc(-c2cccnc2)n1 [Imatinib]
relative IC50 (HSC2 [1]): > 10000 nM
relative IC50 (ST8814 [2]): 3580 nM
relative IC50 (STS26T [3]): > 10000 nM
relative IC50 (HSC1 [4]): > 10000 nM
relative IC50 (HS-Sch-2): 3190 nM
relative IC50 (HSC2 [6]): > 10000 nM
relative IC50 (ST8814 [7]): 3530 nM
relative IC50 (YST-1): 1950 nM
relative IC50 (S1507-2): 1960 nM
relative IC50 (HSC1 [8]): > 10000 nM
relative IC50 (HS-PSS [9]): 2380 nM

Cn1cnc(-c2cc3nccc(Oc4ccc(NC(=S)NC(=O)Cc5ccccc5)cc4F)c3s2)c1 [MGCD-265]
relative IC50 (STS26T [3]): > 10000 nM
relative IC50 (HSC1 [4]): > 10000 nM
relative IC50 (HS-PSS [5]): > 10000 nM
relative IC50 (S462): 2100 nM
relative IC50 (HS-Sch-2): 1730 nM
relative IC50 (ST8814 [7]): 439 nM
relative IC50 (S1507-2): 501 nM

O=C(O)CC[C@H]1CC[C@@](c2cc(F)ccc2F)(S(=O)(=O)c2ccc(Cl)cc2)CC1 [MK-0752]
relative IC50 (HSC2 [1]): > 1000 nM
relative IC50 (ST8814 [2]): > 1000 nM
relative IC50 (STS26T [3]): > 1000 nM
relative IC50 (HSC1 [4]): > 1000 nM
relative IC50 (HS-PSS [5]): > 1000 nM
relative IC50 (S462): > 1000 nM
relative IC50 (ST8814 [7]): > 1000 nM
relative IC50 (STS26T [10]): > 1000 nM
relative IC50 (YST-1): > 1000 nM
relative IC50 (S1507-2): > 1000 nM
relative IC50 (HS-PSS [9]): > 1000 nM

CN(C)C(=N)NC(=N)N [Metformin aq]
relative IC50 (HSC2 [1]): > 100000 nM
relative IC50 (ST8814 [2]): > 100000 nM
relative IC50 (STS26T [3]): > 100000 nM
relative IC50 (HSC1 [4]): > 100000 nM
relative IC50 (HSC2 [6]): > 100000 nM
relative IC50 (ST8814 [7]): > 100000 nM
relative IC50 (STS26T [10]): > 100000 nM
relative IC50 (S1507-2): > 100000 nM
relative IC50 (HSC1 [8]): > 100000 nM

Cc1cnc(NC(=O)Nc2cc(Br)c(C)cc2OC[C@@H]2CNCCO2)cn1 [Rabusertib]
relative IC50 (HSC2 [1]): > 1000 nM
relative IC50 (ST8814 [2]): > 1000 nM
relative IC50 (STS26T [3]): 330 nM
relative IC50 (HS-PSS [5]): > 1000 nM
relative IC50 (S462): 319 nM
relative IC50 (HS-Sch-2): 302 nM
relative IC50 (ST8814 [7]): > 1000 nM
relative IC50 (STS26T [10]): 189 nM
relative IC50 (YST-1): 242 nM
relative IC50 (S1507-2): 236 nM

CC(C)(C)Cn1c(N)nc2ccc(-c3[nH]c(C(C)(C)C)nc3-c3ccc(F)cc3)nc21 [Ralimetinib]
relative IC50 (HSC2 [1]): > 10000 nM
relative IC50 (ST8814 [2]): > 10000 nM
relative IC50 (STS26T [3]): > 10000 nM
relative IC50 (HSC1 [4]): > 10000 nM
relative IC50 (HS-PSS [5]): > 10000 nM
relative IC50 (HS-Sch-2): 3330 nM
relative IC50 (HSC2 [6]): 474 nM
relative IC50 (ST8814 [7]): 1560 nM
relative IC50 (STS26T [10]): 2920 nM
relative IC50 (YST-1): 115 nM
relative IC50 (S1507-2): 2140 nM
relative IC50 (HSC1 [8]): 2330 nM
relative IC50 (HS-PSS [9]): 4090 nM

O=C(c1ccc(OCCN2CCCCC2)cc1)c1c(-c2ccc(O)cc2)sc2cc(O)ccc12 [Raloxifene]
relative IC50 (HSC2 [1]): > 10000 nM
relative IC50 (ST8814 [2]): 3430 nM
relative IC50 (STS26T [3]): 3800 nM
relative IC50 (HSC1 [4]): > 10000 nM
relative IC50 (HS-Sch-2): 1810 nM
relative IC50 (HSC2 [6]): 1840 nM
relative IC50 (ST8814 [7]): 2940 nM
relative IC50 (STS26T [10]): 3280 nM
relative IC50 (YST-1): 1820 nM
relative IC50 (S1507-2): 3100 nM
relative IC50 (HSC1 [8]): 3100 nM
relative IC50 (HS-PSS [9]): 1130 nM

CNCc1ccc(-c2[nH]c3cc(F)cc4c3c2CCNC4=O)cc1 [Rucaparib]
relative IC50 (HSC2 [1]): > 10000 nM
relative IC50 (ST8814 [2]): > 10000 nM
relative IC50 (STS26T [3]): > 10000 nM
relative IC50 (HSC1 [4]): > 10000 nM
relative IC50 (HS-PSS [5]): > 10000 nM
relative IC50 (HSC2 [6]): > 10000 nM
relative IC50 (ST8814 [7]): > 10000 nM
relative IC50 (STS26T [10]): > 10000 nM
relative IC50 (YST-1): 447 nM
relative IC50 (S1507-2): > 10000 nM
relative IC50 (HSC1 [8]): > 10000 nM
relative IC50 (HS-PSS [9]): 1040 nM

CC(C)N(CCCNC(=O)Nc1ccc(C(C)(C)C)cc1)C[C@H]1O[C@@H](n2cc(Br)c3c(N)ncnc32)[C@H](O)[C@@H]1O [SGC0946]
relative IC50 (HSC2 [1]): > 10000 nM
relative IC50 (ST8814 [2]): 3070 nM
relative IC50 (STS26T [3]): > 10000 nM
relative IC50 (HSC1 [4]): > 10000 nM
relative IC50 (HS-PSS [5]): 2490 nM
relative IC50 (HS-Sch-2): 3000 nM
relative IC50 (ST8814 [7]): 3450 nM
relative IC50 (STS26T [10]): > 10000 nM
relative IC50 (YST-1): 3670 nM
relative IC50 (S1507-2): 2090 nM
relative IC50 (HS-PSS [9]): 1940 nM

CC/C(=C(\c1ccccc1)c1ccc(OCCN(C)C)cc1)c1ccccc1 [Tamoxifen]
relative IC50 (HSC2 [1]): > 10000 nM
relative IC50 (ST8814 [2]): 2490 nM
relative IC50 (HSC1 [4]): > 10000 nM
relative IC50 (HS-PSS [5]): > 10000 nM
relative IC50 (HS-Sch-2): 2300 nM
relative IC50 (HSC2 [6]): 3370 nM
relative IC50 (ST8814 [7]): 3340 nM
relative IC50 (YST-1): 3250 nM
relative IC50 (S1507-2): 3950 nM
relative IC50 (HS-PSS [9]): 3900 nM

COc1cc2c(NC3CCN(C(C)C)CC3)nc(C3CCCCC3)nc2cc1OCCCN1CCCC1 [UNC0638]
relative IC50 (HSC2 [1]): > 10000 nM
relative IC50 (ST8814 [2]): 2230 nM
relative IC50 (STS26T [3]): 3390 nM
relative IC50 (HS-PSS [5]): 2540 nM
relative IC50 (S462): 2730 nM
relative IC50 (HS-Sch-2): 2270 nM
relative IC50 (ST8814 [7]): 2640 nM
relative IC50 (STS26T [10]): 3500 nM
relative IC50 (YST-1): 2870 nM
relative IC50 (S1507-2): 1720 nM
relative IC50 (HS-PSS [9]): 1740 nM

Cc1cnc(Nc2ccc(F)cc2Cl)nc1-c1c[nH]c(C(=O)N[C@H](CO)c2cccc(Cl)c2)c1 [VX-11E]
relative IC50 (HSC2 [1]): 651 nM
relative IC50 (ST8814 [2]): 816 nM
relative IC50 (STS26T [3]): 896 nM
relative IC50 (HSC1 [4]): 874 nM
relative IC50 (HS-PSS [5]): > 2500 nM
relative IC50 (HS-Sch-2): 367 nM
relative IC50 (HSC2 [6]): 696 nM
relative IC50 (ST8814 [7]): 905 nM
relative IC50 (STS26T [10]): 830 nM
relative IC50 (YST-1): > 2500 nM
relative IC50 (S1507-2): 966 nM
relative IC50 (HSC1 [8]): 750 nM
relative IC50 (HS-PSS [9]): 756 nM
